Type in all cases: cell-based, human
Assay [1] concerns DU145 cells (prostate tumor). The experiment in a line: MTT viability assay DU145. As to conditions: 72 h. How it is done: (§1) A panel of five tumor cell lines and two normal cell lines was used to preliminarily test the cytotoxicity of compounds 1–4, and the experiments were conducted as previously reported. All human cell lines were acquired from American Type Culture Collection (ATCC): tumor PC-3 and DU145 (prostate), HeLa (cervix), MCF7 (breast) and HT29 (colorectal) and healthy HFF-1 (fibroblast) and RWPE-1 (prostate). The cell catalogue reference and culture media used in the experiments were CRL-1435^TM, RPMI (PC-3), HTB-81™, RPMI (DU145), CCL-2^TM, DMEM (HeLa), HTB-22^TM, DMEM (MCF-7), HTB-38^TM, modified McCoy’s 5a medium, Catalogue No. 30-2007 (HT29), SCRC-1041^TM, DMEM (HFF-1) and CRL-11609^TM, Keratinocyte-SFM (RWPE-1). Culture media were purchased from Merck: RPMI-1640, DMEM + 10% FBS (Fetal Bovine Serum) + […] (penicillin/streptomycin/amphotericin B). Media and supplements for RWPE-1 were from ThermoFisher (17005075, Madrid, Spain). MCF7 cells were additionally supplemented with insulin (0.001 mg/mL in 500 mL media). Cells were kept at 37 °C (5% CO2), and culture media were renewed three times per week. When the cells reached 80–100% confluence, they were trypsinized and centrifuged, and the concentration was adjusted to each experiment. Cells were seeded at a density of ~10,000 cells/well into 24-well plates. The cells were treated with ligands 1–4 or the cytotoxic agents PhenQE8, PhenDC3 or cisplatin at different concentrations (10 nM–100 μM). Compound solutions were freshly prepared using the appropriate culture medium. Triplicate experiments were run. For MTT viability assays, after 72 h incubation, 50 μL of MTT (5 mg/mL) was added, and an additional incubation of 4 h was allowed. The medium in each well was then replaced by DMSO, and the absorbance was measured at 570 nm using an ELISA plate reader. Absorbances were normalized using negative controls (untreated cells, in triplicate, with a maximum of 0.9% DMSO content). Dose–response curves were obtained by plotting the percentage of viable cells versus logarithmic compound concentration. IC50 values were determined using Kaleidagragh^TM (3.52) software by adjusting the data to Equation 1/(1 + 10^(m2*(log(m1) − x))); m1 = 0.000003; m2 = 1.
In general terms: Tetrazolium assays rely on reduction of a dye to a coloured formazan, in cell work by metabolically active cells.

Assay [2] relates to HT29 cells (colorectal). The experiment in a line: MTT viability assay HT29. Conditions: 72 h. How it is done:
as §1, with “Dose–response curves were obtained by plotting the percentage of viable cells versus logarithmic compound concentration.” left out

In assay [3] the test system is HeLa cells. The experiment in a line: Annexin V/PI FITC apoptosis assay, HeLa. Conditions: 20 μM, 48 h, in comparison to untreated cells. As for the experimental part:
For the Annexin V apoptosis experiments, approximately half of the cells used in combined experiments with cell cycle analysis were harvested via trypsinization, PBS washed and stained with the Annexin-V FITC & PI kit (Invitrogen^TM ref. V 13242, Thermo Fisher, Madrid, Spain) following a standard protocol. A total of 10,000 events were recorded, and the results obtained by flow cytometry were represented as dot plots.

Experimental findings from paper PMC10813753 (Biology, 2024) are described below.

What is called IC50 is the concentration that inhibits the measured activity by half.

In the case of “2,2′-(1,10-Phenanthroline-2,9-diyl)-bis(methylene)-bis(hydrazine-1-carbothioamide) [compound 1]”, the IC50 in assay [1] is 62.2 ± 5.9 µM; in assay [2], > 100 µM. For the same substance, in assay [3], the “increase in the number of early apoptotic and late apoptotic cells” value is 20–25%.
